Measured values as given in US20060079573A1, “Methods and compositions for preventing vasospasm” (priority 2004, published 2006).

What was measured:
[1] = system: canine brachial arteries; experiment: TUNEL assay of endothelial and smooth muscle cell apoptosis in vessels; format: cell-based
Experimental: Endothelial and smooth muscle cell apoptosis was evaluated using the terminal deoxynucleotidyl transferase (TdT)-mediated dUTP nick end labeling (TUNEL) method. In preparation for the TUNEL assay, the vessels were embedded in optimal cutting temperature compound (OCT, Sakura Finetek, Torrance, Calif.). Cryosections from frozen tissue were obtained using a Hacker-Bright cryostat and thaw-mounted onto Fisher-Plus slides (Fisher Scientific). Determination of apoptosis was performed using an in situ cell death detection kit (Roche Applied Science, Indianapolis, Ind.). DNA strand breaks were labeled with fluorescein-dUTP, followed by the addition of a secondary, antifluorescein antibody conjugated with alkaline phosphatase, a converter which generates a red color from Vector Red substrate. Folio wing counterstaining with hematoxylin and dehydration in graded alcohols, the number of apoptotic cells (indicated by red-stained nuclei) per high power field (HPF) was counted under light microscopy and is expressed as a percentage of the total number of nuclei per HPF.

[2] = system: canine brachial arteries; experiment: Histologic evaluation (H and E) of vessels for morphologic injury; format: cell-based; settings: 48 h after 1 mM WT treatment and incubation
Experimental: Prolonged storage in cell culture environments has the potential to cause cellular injury, which might impair smooth muscle function. To confirm that the lack of the observed contraction in WT-treated vessels was not a function of cellular damage, a subset of vessels was tested for histological signs of injury and apoptosis after treatment with WT and incubation for 48 h. For histology, formalin-fixed vessels were embedded in paraffin blocks, cut into sections for slide preparation, and stained with hematoxylin and eosin (H and E) prior to examination for signs of morphologic damage.

[3] = system: canine brachial arteries; experiment: Contractile function of artery segments in organ chambers after WT soak; format: cell-based; settings: for force of contraction in response to 5HT: 1 μM 5-HT; for force of contraction in response to NE: 1 μM NE; for force of contraction in response to U46: 3 μM U46619; for force of contraction in response to KCl: 60 mM KCl
From the text: Canine brachial arteries, equivalents of radial arteries in humans, were used in this study since they were more readily available and we could obtain longer segments than human radial arteries. Based on previous publications, it has been determined that the contractile and relaxation properties of these canine vessels are similar to the properties of human radial arteries in organ chamber studies [Corvera et al. (2003) Pretreatment with phenoxybenzamine attenuates the radial artery's vasoconstrictor response to α-adrenergic stimuli, J. Thorac. Cardiovasc. Surg., 126:1549-54; Velez et al., 2001]. The arteries were harvested as a pedicle graft and stored in 4° C. KH buffer (in mM/1: glucose 11; magnesium sulfate, 1.2; potassium phosphate 1.2; KCl, 4.7; sodium chloride 118; calcium chloride, 2.5) at pH 7.4 until ready for use.
The vessels were carefully skeletonized, cut into 4-5 mm segments, and soaked in a 1 mM solution of WT in KH buffer and 10% DMSO (used to increase solubility of WT), pH 7.4 at 37° C. for 60 min. Control vessels were soaked in KH buffer with 10% DMSO only. The vessels were then rinsed well with KH to remove all unbound drug. For testing of contractile responses, the arterial segments were mounted on steel hooks in glass organ chambers (Radnoti Glass, Monrovia, Calif.) in KH buffer at pH 7.4 and 37° C., and continuously bubbled with a gas mixture of 95% O2 and 5% CO2. One steel hook was held stationary while the other was attached to a force transducer. Force generated by the vessels in response to various agonists was recorded using an analog-to-digital converter and SPECTRUM Cardiovascular Acquisition and Analysis software (Wake Forest University, Winston-Salem, N.C.). The vessel segments were allowed to stabilize at a baseline tension of 3 g for 60 min prior to testing the effect of various vasoconstrictor agents. During this time, the buffer was changed every 20 min. The total time from the end of WT treatment until contractile responses were tested was approximately 2 h. The contractile responses to 1 μM NE (α1 receptor-dependent, calcium-dependent), 1 μM 5-HT (serotonin receptor-dependent, calcium-independent), 3 μM U46 (thromboxane A2 receptor-dependent, calcium-independent), and 60 mM KCl (receptor-independent depolarizing agent) were then quantified. […] The order in which the constricting agents were administered was varied randomly in order to avoid the effects of one drug on another. […] The vessels were thoroughly washed and allowed to stabilize for 20 min between vasoconstrictor agents. The resting tension was adjusted to 3 g during each stabilization period.
To test the duration of MLCK inhibition by the 60 min pre-treatment with 1 mM WT, a subset of vessels were harvested and treated with WT as above, then incubated in drug-free sterile culture medium [Dulbecco's modified eagle medium (Sigma, St Louis Mo.), with 10% newborn calf serum (Gibco, Inc.) and 1% penicillin-streptomycin] under sterile conditions for 48 h in an incubator aerated with 95% O2 and 5% CO2. The culture medium was changed every 12 h during this time. At the end of the 48 h period, the vessels were removed, rinsed with KH buffer, and contractile responses were tested as described above.

[4] = system: canine brachial arteries; experiment: Endothelial-independent smooth muscle relaxation to SNP after U46 pre-constriction; format: cell-based; settings: 48 h after 1 mM WT; lower SNP concentrations (≦0.5 μM); pre-constricted with 3 μM U46; controls 87.49±2.91%
Experimental: Cardiovasc. Surg., 126:179-85; van Son et al. (1992) Detrimental sequelae on the wall of the internal mammary artery caused by hydrostatic dilation with diluted papaverine solution, J. Thorac. Cardiovasc. Surg., 104:972-6]. Therefore, to test the vasorelaxation capacity of the vessels after treatment with WT, the vessels were pre-constricted with 3 μM U46, and then exposed to incrementally increasing concentrations (50 nM to […]) of SNP, a direct smooth muscle dilator.
The capacity of the vascular smooth muscle to relax independently of the endothelium was evaluated by pre-constricting vessels with U46, followed by exposure to incrementally increasing concentrations of SNP, a direct smooth muscle relaxing agent. […] Two hours after soaking, control vessels relaxed 99.04±7.30% from their pre-constricted state in response to SNP.

[5] = system: radial and internal mammary arteries; settings: cited from earlier work
[6] = system: radial artery; settings: cited from earlier work

COC[C@H]1OC(=O)c2coc3c2[C@@]1(C)C1=C(C3=O)[C@@H]2CCC(=O)[C@@]2(C)C[C@H]1OC(C)=O [WT, Wortmannin]
TUNEL-positive cells in the smooth muscle ([1]; 48 h after WT treatment and incubation, control 0.35±0.16%): 4.63±1.04%
TUNEL-positive cells in the endothelium ([1]; 48 h after WT treatment and incubation, control 4.47±2.90%, P=0.058): 16.88%±4.90
apoptotic nuclei in smooth muscle layer versus control ([1]; FIG. 3, 400×): greater extent of apoptotic nuclei (black arrows) stained red by the TUNEL method in the smooth muscle layer of control vessels (A) as compared to WT-treated vessels
apoptotic nuclei in endothelium versus control ([1]; FIG. 4, 400×): greater extent of apoptotic nuclei (black arrows) stained red by the TUNEL method in the endothelium of control vessels (A) as compared to WT-treated vessels
microscopic evidence of injury, endothelium and elastic lamina (H and E) [2]: appeared normal
microscopic evidence of injury, smooth muscle (H and E) [2]: minimal hypereosinophilic staining in the smooth muscle
force of contraction in response to 5HT ([3]; 2 h after 60 min soak in 1 mM WT, control 9.64±0.67 g): 0.92 ± 0.35 g
force of contraction in response to 5HT ([3]; 48 h incubation after 1 mM WT soak, control 12.42±0.70 g): 4.67 ± 0.39 g
force of contraction in response to NE ([3]; 2 h after 60 min soak in 1 mM WT, control 7.22±0.37 g): 0.19 ± 0.07 g
force of contraction in response to NE ([3]; 48 h incubation after 1 mM WT soak, control 6.95±0.47 g): 2.36 ± 0.17 g
force of contraction in response to U46 ([3]; 2 h after 60 min soak in 1 mM WT, control 10.99±0.50 g): 1.25 ± 0.17 g
force of contraction in response to U46 ([3]; 48 h incubation after 1 mM WT soak, control 9.29±0.74 g): 5.42 ± 0.34 g
force of contraction in response to KCl ([3]; 2 h after 60 min soak in 1 mM WT, control 15.00±0.48 g): 1.98 ± 0.27 g
force of contraction in response to KCl ([3]; 48 h incubation after 1 mM WT soak, control 13.32±0.60 g): 7.49 ± 0.48 g
contractile activity regained ([3]; 48 h after treatment): about 50%
reduction of contractile responses / vasoconstriction ([3]; at 48 h following washout): 50%
relaxation response to SNP from pre-constricted state [4]: 76.01±2.60%

COc1ccc(Cc2nccc3cc(OC)c(OC)cc23)cc1OC [papaverine]
effect on endothelium (in words) [5]: causes both impairment of endothelial function and endothelial cell apoptosis
effect on contraction after washout (in words) ([6]; after the drug has been washed away): virtually no effect after the drug has been washed away

CC(COc1ccccc1)N(CCCl)Cc1ccccc1 (centres unmarked) [phenoxybenzamine]
prevention of alpha-agonist-induced contractions (in words) ([6]; 48 h following treatment): effective in preventing alpha-agonist-induced contractions at 48 h following treatment
